The source of these data is ChEMBL document CHEMBL1124150, “cis-4-Carboxy-6-(mercaptomethyl)-3,4,5,6-tetrahydropyrimidin-2(1 H)-one , a potent inhibitor of mammalian dihydroorotase” (J Med Chem, 1988).

Series [1] concerns B16. Kind of series: In vitro antiproliferative activity against Murine B16 Melanoma cells in presence of 1 mM uridine at a dose of 1 mM. In kind it is functional, Mus musculus.
The subject of series [2] is B16. Nature of the series: In vitro antiproliferative activity against Murine B16 Melanoma cells in presence of 1 mM uridine at a dose of 2 mM. In kind it is functional, Mus musculus.
Series [3] has as its system B16. Nature of the series: In vitro antiproliferative activity against Murine B16 Melanoma cells in presence of 1 mM uridine at a dose of 0.12 mM. Type of series: functional, Mus musculus.
In series [4] the test system is B16. Nature of the series: In vitro antiproliferative activity against Murine B16 Melanoma cells in presence of 1 mM uridine at a dose of 0.25 mM. Type of series: functional, Mus musculus.
Series [5] relates to B16. Kind of series: In vitro antiproliferative activity against Murine B16 Melanoma cells in presence of 1 mM uridine at a dose of 0.5 mM. In kind it is functional, Mus musculus.
The subject of series [6] is B16. Nature of the series: In vitro antiproliferative activity against Murine B16 Melanoma cells without uridine at a dose of 0.12 mM. Type of series: functional, Mus musculus.
In series [7] the test system is B16. Kind of series: In vitro antiproliferative activity against Murine B16 Melanoma cells without uridine at a dose of 0.25 mM. Type of series: functional, Mus musculus.
Series [8] deals with B16. Kind of series: In vitro antiproliferative activity against Murine B16 Melanoma cells without uridine at a dose of 0.5 mM. Type of series: functional, Mus musculus.
For series [9], the system named is B16. Kind of series: In vitro antiproliferative activity against Murine B16 Melanoma cells without uridine at a dose of 1 mM. In kind it is functional, Mus musculus.
Series [10] deals with B16. Kind of series: In vitro antiproliferative activity against Murine B16 Melanoma cells without uridine at a dose of 2 mM. Type of series: functional, Mus musculus.
Series [11] can be described thus: Dissociation constant was determined. In kind it is physicochemical.
The subject of series [12] is B16. Kind of series: In vitro antiproliferative activity against Murine B16 Melanoma cells in presence of 1 mM uridine at a dose of 10 mM. In kind it is functional, Mus musculus.
The subject of series [13] is B16. Nature of the series: In vitro antiproliferative activity against Murine B16 Melanoma cells without uridine at a dose of 0.01 mM. In kind it is functional, Mus musculus.
The subject of series [14] is B16. Kind of series: In vitro antiproliferative activity against Murine B16 Melanoma cells in presence of 1 mM uridine at a dose of 0.01 mM. Type of series: functional, Mus musculus.
In series [15] the test system is B16. Kind of series: In vitro antiproliferative activity against Murine B16 Melanoma cells in presence of 1 mM uridine at a dose of 0.1 mM. Type of series: functional, Mus musculus.
The subject of series [16] is B16. Kind of series: In vitro antiproliferative activity against Murine B16 Melanoma cells without uridine at a dose of 0.1 mM. In kind it is functional, Mus musculus.
Series [17] has as its system B16. Nature of the series: In vitro antiproliferative activity against Murine B16 Melanoma cells without uridine at a dose of 10 mM. In kind it is functional, Mus musculus.

On to `COC(=O)[C@@H]1C[C@H](CSC(C)=O)NC(=O)N1` (relative stereo), for which the Growth inhibition in series [1] turned out to be 83%; in series [2], 98%; in series [3] it was 0%; in [4] it was 2%; in series [5], 9%; in [6], 0%. The Growth inhibition was 2% in series [7], 28% in series [8], 94% in series [9] and 96% in [10].

The Ki is the equilibrium dissociation constant of an inhibitor or competing ligand from its target. Higher therefore signals lower affinity. For `O=C1N[C@@H](CS)C[C@@H](C(=O)O)N1` (relative stereo), affinity in series [11] was put at a Ki of 0.2 µM. Besides, the Growth inhibition in series [1] turned out to be 12%; in series [2] it was 18%; in [3], 0%; in series [4] it was 3%; in [5], 4%; in [6], 4%. The Growth inhibition turned out to be 9% in series [7], 14% in [8], 17% in series [9] and 22% in series [10].

`O=C(O)C[C@H](NC(=O)CP(=O)(O)O)C(=O)O` [PALA]: the Growth inhibition in [1] came to 9%; in series [12], 10%; in series [13], 16%; in series [14], 6%; in series [15], 6%; in series [16] it was 79%. The Growth inhibition was found to be 86% in series [9] and 84% in series [17].
